From PubChem BioAssay AID179 (DTP/NCI, 2004)
pEC50, pIC50: −log10 of the molar value. Where “and” joins values, the source holds several entries; their conditions need not be identical. Equal values may be shown once. Calls of active or inactive are those of the source.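 Rule for the calls: active = compounds giving half or more protection of infected cells from virus-caused growth loss, again on retest; inactive = the rest.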 Where a SMILES comes first, the peptide text is derived from it. Bridges are numbered along the chain shown (N, C = ends).

Test system: CEM cells HIV-1 protection, formazan growth assay
Experiment: NCI AIDS Antiviral Assay
Conditions: for pIC50: measured here: growth of uninfected CEM cells
Procedure, shortened: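 Protection of CEM cells against HIV-1 measured as cell growth via soluble formazan read-out, with five concentrations tested on both infected and uninfected cells; failure to protect may reflect toxicity.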

Structure (SMILES) | pEC50 | pIC50 | outcome
NC(CSSCC(NC(=O)OCc1ccccc1)C(=O)O)C(=O)O (stereo not given) | < 3.70 | < 3.70 | –
CC(C)(C)[Si](C)(C)OCC1OC(n2ccc(=O)[nH]c2=O)C(O[Si](C)(C)C(C)(C)C)/C1=C/C(N)=N\O (stereo not given) | < 3.70 | 5.04 | –
Nc1cccc(C(CC(=O)O)CC(=O)O)c1 | < 3.70 | < 3.70 | –
CCOP(=O)(OCC)C(C1OC(n2ccc(=O)[nH]c2=O)C(O[Si](C)(C)C(C)(C)C)C1O[Si](C)(C)C(C)(C)C)N(C)O (stereo not given) | < 3.70 | 5.32 | –
COc1ccccc1CO[C@]1(C)CNCC(C)(C)NC(=O)[C@@](C)(OCc2ccccc2OC)CNCC(C)(C)NC1=O | < 3.70 | < 3.70 | –
COc1ccc(N2C(=O)/C(=C/c3ccc(N(CCC#N)CCC#N)cc3C)N=C2/C=C\c2ccccc2)cc1 | < 4.85 | < 4.85 | –
Clc1ccc(/C=N\N2CCCCCC2)c(Cl)c1 | – | – | inactive
N/C(=N\N=C\c1cccs1)NO | < 3.15 | < 3.15 | –
O=C1c2ccc(O)cc2OC(c2cc(O)c(O)c(O)c2)C1O (stereo not given) | < 3.70 | 4.93 | –
O=S(=O)(O)c1ccc2c(N=NNc3ccc(NN=Nc4cccc5cc(S(=O)(=O)O)ccc45)cc3)cccc2c1 | < 3.12 | 3.34 | –
FC(F)(F)c1nc2c(ccc3[nH]c4c(-c5ccccc5)nccc4c32)[nH]1 | < 4.55 | < 4.55 | –
O=C(C=C1SCCS1)/C=C\c1ccc(Cl)cc1 | < 4.45 | < 4.45 | –
Nn1c(Cc2ccc([N+](=O)[O-])cc2)n[nH]c1=O | < 3.70 | < 3.70 | –
CC1CCC2(CC1)NC1=C(CC(C)CC1)C1=C2CC(C)CC1 (stereo not given) | < 3.70 | 4.45 | –
NC(CO)C(=O)NCCS(=O)(=O)O (stereo not given) | < 4.00 | < 4.00 | –
O=C(Cc1ccccc1)NCCc1ccc(O)c(O)c1 | < 3.70 | 4.56 | –
O=C(OCCN=c1c2ccccc2ccc2ccccc12)c1ccccc1 | < 3.70 | 3.92 | –
COc1cccc(C2c3cc4c(cc3OC(Nc3ccccc3)C2C)OCO4)c1O (stereo not given) | < 3.70 | 5.45 | –
Cc1ccc(S(=O)(=O)N/N=C2/C3C(CC2(C)C)C2(C)CCCC3(C)C2O)cc1 (stereo not given) | < 3.70 | < 3.70 | –
CCOC(=O)C(=O)Nc1ccccc1OCC | < 3.68 | < 3.68 | –
CC(=O)C(N=Nc1nc2ccccc2[nH]1)C(C)=O | < 3.70 | 4.70 | –
O=C1Oc2ccccc2C(=O)/C1=C/N1C(=O)N/C(=C\c2ccccc2Br)C1=O | < 3.70 | 4.08 | –

Structure (SMILES) | pEC50 | pIC50 | outcome
COc1cccc(-c2c(C#N)c(N)nc3c2CCS(=O)(=O)c2ccc(C)cc2-3)c1 | < 3.70 | < 3.70 | –
CCCCCC=C(c1cc(Br)c(O)c(C(=O)O)c1)c1cc(Br)c(O)c(C(=O)O)c1 | < 3.09 | 3.82 | –
CN(C)CCNC(=O)C(C)(C)Oc1ccc(C(=O)c2ccc(Cl)cc2)cc1Cl | < 3.70 | 5.02 | –
Clc1ccc(OCc2nnc(CCCCCCCCc3nnc(COc4ccc(Cl)cc4Cl)o3)o2)c(Cl)c1 | < 3.70 | 3.89 | –
COc1ccc(-c2cc(-c3ccco3)c(C#N)c(=O)n2C2OC(COC(C)=O)C(OC(C)=O)C(OC(C)=O)C2OC(C)=O)cc1 (stereo not given) | < 4.94 | < 4.94 | –
CCN(CC)CCCNc1nc2ccccc2c2c1ncn2CC(C)C | < 3.70 | 4.38 | –
CC1=CC(=C(c2ccc(N)c(S(=O)(=O)O)c2)c2ccc(N)c(S(=O)(=O)O)c2)C=C(S(=O)(=O)O)C1=N | – | – | inactive
CCN(CC)CCOCC1CCCN2CCCCC12 (stereo not given) | < 3.70 | < 3.70 | –
Nc1ncnc2c1N=CN(Oc1ccccc1)N2 | – | – | inactive
CC1(C)N=C(N)N=C(N)N1c1ccc(Cl)c(Cl)c1 | < 8.00 | 8.37 | –
CCOC(=O)N(c1ccccc1)c1cc(=O)n2ccccc2n1 | < 3.70 | < 3.70 | –
CON(C)C(=O)C(C)NC(=O)OC(C)(C)C (stereo not given) | < 3.81 | < 3.81 | –
S=C1NCCS1 | < 2.68 | 2.93 | –
S=C1NC(c2ccco2)N2C(=S)NC(c3ccco3)N12 (stereo not given) | – | < 3.70 | inactive
CS(=O)(=O)CS(=O)CS(=O)CS(=O)CC(NC(=O)CCC(N)C(=O)O)C(=O)O (stereo not given) | < 3.29 | < 3.29 | –
CN1C2CCC1C(C(=O)O)C(O)C2 (stereo not given) | < 3.70 | < 3.70 | –
CC(C)N(C(=O)C12C3C4C1C1C2C3C41I)C(C)C (stereo not given) | < 3.72 | < 3.72 | –
O=C(O)c1ccc(C(=O)c2ccccc2)c(C(=O)O)c1 | < 3.70 | < 3.70 | –
COc1cc2c3c(c1)ncn3C(=O)CCS2 | < 3.70 | < 3.70 | –
O=C1CC(CC(O)C2CCCCC2O)CC(=O)N1 (stereo not given) | < 3.70 | < 3.70 | –
Cc1ccc(S(=O)(=O)NC(=O)NCCSSCCNC(=O)NS(=O)(=O)c2ccc(C)cc2)cc1 | < 3.70 | < 3.70 | –
COC(=O)C1CCC(=O)NCCCCC(NC(=O)C(N)CC(=O)O)C(=O)N1 (stereo not drawn) (H-Asp-Lys-Glu-OMe; lactam 2-3; configuration not given here) | < 3.70 | 4.04 | –

Structure (SMILES) | pEC50 | pIC50 | outcome
CCOC(=O)c1c(NCc2ccccc2)n(-c2ccccc2)c(=S)n(-c2ccccc2)c1=O | < 4.39 | 4.52 | –
COC(=O)C1=C(\c2ccccc2)c2ccccc2C(=O)N(C2CCCCC2)/C=C\1 | < 3.70 | 4.59 | –
CC1OC(n2cc(F)c(=O)[nH]c2=O)C=CC1=O (stereo not given) | < 2.98 | 4.85 | –
CC(=O)N1C(Nc2ccccn2)CCN1c1ccccc1 (stereo not given) | < 3.70 | 4.42 | –
COC(=O)/C=C(C)/C=C/C1OC(C)OCC1O (stereo not given) | < 2.99 | < 2.99 | –
O=C1/C(=C/c2cccc(Cl)c2)CCc2ccccc21 | < 5.00 | < 5.00 | –
Cc1cc2nc(CCC(=O)O)c(=O)[nH]c2cc1C | < 3.00 | < 3.00 | –
CCCCCCCCCCCCCCOCCS(=O)(=O)O | < 3.70 | 4.28 | –
O=C(Nc1cccc(C(F)(F)F)c1)c1cc(Br)cc(Br)c1O | < 3.70 | 5.82 | –
N=c1c2ccccc2nnn1Cc1ccccc1 | < 3.75 | < 3.75 | –
N#Cc1c(N2CCCCC2)[nH]c(=O)n(-c2ccccc2)c1=S | < 3.70 | < 3.70 | –
CC(C)(c1cccs1)c1cscc1C(=O)O | < 3.70 | < 3.70 | –
O=C(O)c1c2c(cc3c1CC(Cc1ccccc1)C3=O)CCC2 (stereo not given) | < 3.70 | 4.19 | –
CCCCCCCCOC1OC(COC(C)=O)C(OC(C)=O)C(OC(C)=O)C1OC(C)=O (stereo not given) | < 4.00 | < 4.00 and 4.02 | –
O=C1CCC(=O)N2CCCCN12 | < 3.39 | < 3.39 | –
CCN(CC)CCNC(=O)C1COc2ccc(-c3cc(=O)c4ccccc4o3)cc2O1 (stereo not given) | – | – | inactive
O=C(NCCO)c1c(O)c2ccccc2[nH]c1=O | < 3.70 | < 3.70 | –
O=C(CCCCCCCCC(=O)NN1C(=O)/C(=C\c2ccc(O)c(O)c2)SC1c1c(O)ccc2ccccc12)NN1C(=O)C(=Cc2ccc(O)c(O)c2)SC1c1c(O)ccc2ccccc12 (stereo not given) | < 3.70 | 6.00 | –
CCCCC(C)CCCC1=C(O)C(CC(=O)O)OC1=O (stereo not given) | < 4.06 | < 4.06 | –
COc1ccc(N/N=C(\CCN(C)C)c2ccccc2)cc1 | – | – | inactive
CO/N=C/c1cc(NC(=S)c2ccoc2C)ccc1Cl | 7.24 | 4.53 | –
